Where two headings read alike, the source gives them in different places.
Tests used:
[1] = molecular target: H. pylori urease (Helicobacter pylori, UniProt P14916+P69996); test: cell-based; format: cell-based; conditions: 20 μM compound in cultured medium; read-out: inhibition of urease activity in H. pylori cells
[2] = molecular target: T1, UreG (Helicobacter pylori, UniProt Q09066); test: biochemical; format: binding, H. pylori
[3] = molecular target: UreGΔNKXD (Helicobacter pylori, UniProt Q09066, D148A/K146A/N145A); test: Fluorescence-quenching titration of mutant UreGΔNKXD; format: binding, H. pylori
Method: To further confirm the interface between UreG and small molecules generated from computational models, we then constructed an UreG mutant (UreGΔNKXD) by replacing selected residues (N145, K146, D148) with Ala to disrupt G4 motif, which abolished GTP binding of UreG (S17 Fig).
Using the relation between the emission intensity at 310 nm and molecule-UreG–bound species, as well as one site-binding model, the Kd values were calculated by a logistic regression model referring to a previous report. […] All fluorescence readings were corrected for the dilution effect.

[4] = molecular target: T1, UreG; test: Nickel binding of UreG (UV absorption at 337 nm) in presence of compounds; parameters: species or system H. pylori
Method: We further investigated whether binding of cmpd4 or cmpd8 to the guanine nucleotide binding pocket perturbed the Ni(II) coordination to the protein. Considering that coordination of Ni(II) to UreG results in a (Cys)→Ni(II) LMCT band centered at about 337 nm, we monitored the UV absorption of UreG samples (5 μM) at 337 nm upon titration of nickel with or without the supplement of cmpd4 or cmpd8. As shown in S19 Fig, cmpd4 at a ratio of [cmpd4]/[UreG] of 5 and 10 reduced the percentages of Ni(II)-bound UreG to ca. 75% and 30%, respectively, and a similar phenomenon was also observed for cmpd8 (S19 Fig), indicative of the disruption of nickel binding property of UreG through targeting nucleotide binding site.
Supplementary file pbio.2003887.s021.png: S19 Fig Effect of cmpd4 and cmpd8 on nickel binding property of UreG. UreG (5 μM) in HEPES buffer (5 μM GTP, 1 mM MgSO4) was titrated with NiSO4 in the presence of cmpd4 or cmpd8 at various concentrations. Titration of nickel ion into UreG samples led to the increasing of absorption at 337 nm, the highest of which was set as 100% for the percentage of Ni-bound UreG. The supplement of cmpd4 and cmpd8 reduced the percentage of Ni-bound UreG. […] (PNG) Click here for additional data file.

[5] = test system: AGS cells with H. pylori infection; test: AGS cells with H. pylori infection, inhibitors administrated to the AGS cells (S20 Fig); format: cell-based, human; conditions: 10 μM administrated to AGS cells with H. pylori infection
Excerpt: As expected, low viability of AGS with the supplement of cmpd4 and cmpd8 was observed due to the toxicity of small compounds to mammalian cells. […] (PNG) Click here for additional data file.

T1 sequence (Q09066 whole entry): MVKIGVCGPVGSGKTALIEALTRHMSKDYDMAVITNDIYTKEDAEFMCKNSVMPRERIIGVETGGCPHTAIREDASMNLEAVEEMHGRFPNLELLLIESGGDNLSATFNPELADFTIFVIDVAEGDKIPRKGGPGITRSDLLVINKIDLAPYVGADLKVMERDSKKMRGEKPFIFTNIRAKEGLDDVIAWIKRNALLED
Chain of UreGΔNKXD (Q09066 whole entry N145A/K146A/D148A): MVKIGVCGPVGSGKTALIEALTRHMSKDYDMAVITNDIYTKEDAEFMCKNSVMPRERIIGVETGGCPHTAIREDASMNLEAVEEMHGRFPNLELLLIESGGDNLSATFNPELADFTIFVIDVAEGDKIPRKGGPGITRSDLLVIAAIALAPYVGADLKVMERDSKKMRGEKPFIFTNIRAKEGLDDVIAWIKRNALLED
Chain of H. pylori urease (P14916 whole entry, looked up): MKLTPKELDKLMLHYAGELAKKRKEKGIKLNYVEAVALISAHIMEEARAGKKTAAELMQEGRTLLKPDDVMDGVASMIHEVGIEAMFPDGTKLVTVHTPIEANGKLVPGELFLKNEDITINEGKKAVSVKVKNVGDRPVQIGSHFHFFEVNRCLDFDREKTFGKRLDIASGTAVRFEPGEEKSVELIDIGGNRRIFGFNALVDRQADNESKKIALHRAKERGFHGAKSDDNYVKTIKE
Chain of H. pylori urease (P69996 whole entry, looked up): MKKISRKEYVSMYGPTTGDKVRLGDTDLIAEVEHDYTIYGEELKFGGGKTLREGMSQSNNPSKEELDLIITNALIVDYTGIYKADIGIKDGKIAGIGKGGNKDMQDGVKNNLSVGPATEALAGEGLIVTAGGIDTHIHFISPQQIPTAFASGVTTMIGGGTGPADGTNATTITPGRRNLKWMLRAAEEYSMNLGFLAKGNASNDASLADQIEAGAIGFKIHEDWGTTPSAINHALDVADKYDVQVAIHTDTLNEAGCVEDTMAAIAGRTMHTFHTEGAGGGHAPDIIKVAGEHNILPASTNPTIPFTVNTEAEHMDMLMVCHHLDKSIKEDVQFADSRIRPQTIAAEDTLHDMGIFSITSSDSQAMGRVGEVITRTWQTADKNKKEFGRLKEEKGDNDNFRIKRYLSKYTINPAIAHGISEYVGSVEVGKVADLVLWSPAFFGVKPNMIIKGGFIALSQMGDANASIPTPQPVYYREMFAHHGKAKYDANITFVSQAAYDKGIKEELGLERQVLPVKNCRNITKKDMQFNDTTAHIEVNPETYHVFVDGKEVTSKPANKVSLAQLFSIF

Structure (SMILES): O=C(Cn1c2ccccc2c(=O)c2ccccc21)N/N=C/c1cc([N+](=O)[O-])ccc1N1CCCCCC1 [cmpd8]
- inhibition at 20 µM [1]: ~90%
- Normalized fluo [2]: 1.54
- Normalized fluo ([2]; UreG + compound 50μM, Temperature 30.19): 6.82
- Normalized fluo ([2]; UreG + compound 50μM, Temperature 30.56): 5.74
- Normalized fluo ([2]; UreG + compound 50μM, Temperature 30.94): 4.76
- Normalized fluo ([2]; UreG + compound 50μM, Temperature 31.33): 4.03
- Normalized fluo ([2]; UreG + compound 50μM, Temperature 31.72): 3.29
- Normalized fluo ([2]; UreG + compound 50μM, Temperature 32.09): 2.61
- Normalized fluo ([2]; UreG + compound 50μM, Temperature 32.47): 2.02
- Normalized fluo ([2]; UreG + compound 50μM, Temperature 32.85): 1.65
- Normalized fluo ([2]; UreG + compound 50μM, Temperature 33.30): 1.24
- Normalized fluo ([2]; UreG + compound 50μM, Temperature 33.65): 0.72
- Normalized fluo ([2]; UreG + compound 50μM, Temperature 34.08): 0.51
- Normalized fluo ([2]; UreG + compound 50μM, Temperature 34.47): 0.31
- Normalized fluo ([2]; UreG + compound 50μM, Temperature 34.84): 0.0654
- Normalized fluo ([2]; UreG + compound 50μM, Temperature 35.21): 0.00
- Normalized fluo ([2]; UreG + compound 50μM, Temperature 35.58): 0.22
- Normalized fluo ([2]; UreG + compound 50μM, Temperature 35.96): 0.34
- Normalized fluo ([2]; UreG + compound 50μM, Temperature 36.34): 0.64
- Normalized fluo ([2]; UreG + compound 50μM, Temperature 36.71): 0.86
- Normalized fluo ([2]; UreG + compound 50μM, Temperature 37.48): 2.00
- Normalized fluo ([2]; UreG + compound 50μM, Temperature 37.86): 2.40
- Normalized fluo ([2]; UreG + compound 50μM, Temperature 38.23): 3.05
- Normalized fluo ([2]; UreG + compound 50μM, Temperature 38.61): 3.75
- Normalized fluo ([2]; UreG + compound 50μM, Temperature 38.99): 4.78
- Normalized fluo ([2]; UreG + compound 50μM, Temperature 39.38): 5.95
- Normalized fluo ([2]; UreG + compound 50μM, Temperature 39.76): 7.06
- Normalized fluo ([2]; UreG + compound 50μM, Temperature 40.14): 8.20
- Normalized fluo ([2]; UreG + compound 50μM, Temperature 40.52): 9.33
- Normalized fluo ([2]; UreG + compound 50μM, Temperature 40.91): 10.80
- Normalized fluo ([2]; UreG + compound 50μM, Temperature 41.29): 12.52
- Normalized fluo ([2]; UreG + compound 50μM, Temperature 41.66): 14.35
- Normalized fluo ([2]; UreG + compound 50μM, Temperature 42.04): 16.04
- Normalized fluo ([2]; UreG + compound 50μM, Temperature 42.42): 18.03
- Normalized fluo ([2]; UreG + compound 50μM, Temperature 42.81): 19.94
- Normalized fluo ([2]; UreG + compound 50μM, Temperature 43.18): 21.90
- Normalized fluo ([2]; UreG + compound 50μM, Temperature 43.56): 24.29
- Normalized fluo ([2]; UreG + compound 50μM, Temperature 43.94): 26.66
- Normalized fluo ([2]; UreG + compound 50μM, Temperature 44.33): 29.44
- Normalized fluo ([2]; UreG + compound 50μM, Temperature 44.71): 32.01
- Normalized fluo ([2]; UreG + compound 50μM, Temperature 45.09): 34.92
- Normalized fluo ([2]; UreG + compound 50μM, Temperature 45.47): 37.82
- Normalized fluo ([2]; UreG + compound 50μM, Temperature 45.85): 40.91
- Normalized fluo ([2]; UreG + compound 50μM, Temperature 46.23): 43.67
- Normalized fluo ([2]; UreG + compound 50μM, Temperature 46.60): 46.80
- Normalized fluo ([2]; UreG + compound 50μM, Temperature 46.99): 50.61
- Normalized fluo ([2]; UreG + compound 50μM, Temperature 47.37): 53.88
- Normalized fluo ([2]; UreG + compound 50μM, Temperature 47.75): 56.90
- Normalized fluo ([2]; UreG + compound 50μM, Temperature 48.13): 60.37
- Normalized fluo ([2]; UreG + compound 50μM, Temperature 48.52): 63.48
- Normalized fluo ([2]; UreG + compound 50μM, Temperature 48.89): 67.05
- Normalized fluo ([2]; UreG + compound 50μM, Temperature 49.28): 70.49
- Normalized fluo ([2]; UreG + compound 50μM, Temperature 49.65): 73.41
- Normalized fluo ([2]; UreG + compound 50μM, Temperature 50.04): 76.19
- Normalized fluo ([2]; UreG + compound 50μM, Temperature 50.42): 79.38
- Normalized fluo ([2]; UreG + compound 50μM, Temperature 50.80): 82.32
- Normalized fluo ([2]; UreG + compound 50μM, Temperature 51.19): 85.00
- Normalized fluo ([2]; UreG + compound 50μM, Temperature 51.56): 87.48
- Normalized fluo ([2]; UreG + compound 50μM, Temperature 51.96): 89.89
- Normalized fluo ([2]; UreG + compound 50μM, Temperature 52.34): 91.67
- Normalized fluo ([2]; UreG + compound 50μM, Temperature 52.72): 93.50
- Normalized fluo ([2]; UreG + compound 50μM, Temperature 53.10): 95.00
- Normalized fluo ([2]; UreG + compound 50μM, Temperature 53.48): 96.08
- Normalized fluo ([2]; UreG + compound 50μM, Temperature 53.86): 97.41
- Normalized fluo ([2]; UreG + compound 50μM, Temperature 54.24): 98.54
- Normalized fluo ([2]; UreG + compound 50μM, Temperature 54.62): 99.22
- Normalized fluo ([2]; UreG + compound 50μM, Temperature 55.00): 99.67
- Normalized fluo ([2]; UreG + compound 50μM, Temperature 55.38): 100.00
- Normalized fluo ([2]; UreG + compound 50μM, Temperature 55.77): 99.66
- ΔTm at 50 µM ([2]; read-out: thermal shift on the melting temperature of UreG): ~2.5 °C
- Kd [3]: 33.4 µM
- fluorescence intensity (a.u.) ([3]; log(ligand[μM]) 0): 2422.67 a.u.
- fluorescence intensity (a.u.) ([3]; log(ligand[μM]) 0.30103): 2357.67 a.u.
- fluorescence intensity (a.u.) ([3]; log(ligand[μM]) 0.60206): 2253.67 a.u.
- fluorescence intensity (a.u.) ([3]; log(ligand[μM]) 0.90309): 2017.33 a.u.
- fluorescence intensity (a.u.) ([3]; log(ligand[μM]) 1.20412): 1677.67 a.u.
- fluorescence intensity (a.u.) ([3]; log(ligand[μM]) 1.50515): 1189.33 a.u.
- fluorescence intensity (a.u.) ([3]; log(ligand[μM]) 1.80618): 685.167 a.u.
- fluorescence intensity (a.u.) ([3]; log(ligand[μM]) 2.10721): 316.133 a.u.
- fluorescence intensity (a.u.) ([3]; log(ligand[μM]) -0.30103): 2519 a.u.
- fluorescence intensity (a.u.) ([3]; log(ligand[μM]) -1.30103): 2677 a.u.
- absorption at 337 nm ([4]; [compound]/[UreG] 5, Ni 0 μM): 2.14E-04
- absorption at 337 nm ([4]; [compound]/[UreG] 5, Ni 1 μM): 0.00481
- absorption at 337 nm ([4]; [compound]/[UreG] 5, Ni 2 μM): 0.0064
- absorption at 337 nm ([4]; [compound]/[UreG] 5, Ni 3 μM): 0.00838
- absorption at 337 nm ([4]; [compound]/[UreG] 5, Ni 4 μM): 0.01641
- absorption at 337 nm ([4]; [compound]/[UreG] 5, Ni 5 μM): 0.0186
- absorption at 337 nm ([4]; [compound]/[UreG] 5, Ni 6 μM): 0.01908
- absorption at 337 nm ([4]; [compound]/[UreG] 5, Ni 7 μM): 0.02094
- absorption at 337 nm ([4]; [compound]/[UreG] 5, Ni 8 μM): 0.0213
- absorption at 337 nm ([4]; [compound]/[UreG] 10, Ni 0 μM): 0.00131
- absorption at 337 nm ([4]; [compound]/[UreG] 10, Ni 1 μM): 0.00222
- absorption at 337 nm ([4]; [compound]/[UreG] 10, Ni 2 μM): 0.00217
- absorption at 337 nm ([4]; [compound]/[UreG] 10, Ni 3 μM): 0.00973
- absorption at 337 nm ([4]; [compound]/[UreG] 10, Ni 4 μM): 0.01047
- absorption at 337 nm ([4]; [compound]/[UreG] 10, Ni 5 μM): 0.01403
- absorption at 337 nm ([4]; [compound]/[UreG] 10, Ni 6 μM): 0.0146
- absorption at 337 nm ([4]; [compound]/[UreG] 10, Ni 7 μM): 0.01179
- absorption at 337 nm ([4]; [compound]/[UreG] 10, Ni 8 μM): 0.01166
- Ammonia in medium [5]: 0.5294 mM
- Normalized cell survival (%) [5]: low viability
- Normalized cell survival (%) ([5]; listed as cmp8): 23.4234%
